The results in this text go back to US8394355B2, “Use of UTP for the diagnosis of stenoses and other conditions of restricted blood flow” (P2 science Aps, priority 2009, dated 2013).

Where “and” joins values, the source holds several entries; their conditions need not be identical. Equal values may be shown once.

This series has as its system coronary arteries in humans with coronary artery disease. In words: FFR during continuous intracoronary infusion via guiding catheter (Example 2). The format is in vivo. Also on record: key to lowest FFR level / difference in FFR between adenosine and UTP / FFR / FFR Mean: FFR = Pd/Pa (distal/proximal coronary pressure ratio). Particulars: for adverse effects during IC continuous infusion / % of patients with FFR ≦ 0.75 / % of patients with FFR ≦ 0.8: guiding catheter study; for % of patients with FFR ≦ 0.75 / % of patients with FFR ≦ 0.8: 240 μg/min (n = 23); for lowest FFR level: lowest mean over the dose response curve, ± 2SEM, P<0.05. The method, then: The study was performed in 23 patients undergoing elective coronary arteriography (CAG) due to repetitive episodes of typical ischemic chest pain or in patients with recent Non-ST Elevated Myocardial Infarction (>2 days from entry into study). In eligible patients with uni- or multivessel coronary artery disease, lesions with stenosis of at least 50% of their diameter and that were thought to require PCI on the basis of angiographic appearance and clinical data were identified.
In the first part of the experiment, FFR and Coronary Flow (velocity, CFR) were measured after the induction of coronary hyperemia by a continuous intracoronary infusion of UTP (Jena Bioscience GmbH, Germany) and adenosine in random order in a guide catheter (5F catheter, Cordis Corp.). Two UTP doses of 240 and 360 μg/min were tested. UTP was prepared by dissolving 100 mg of UTP trisalt (Sigma Aldrich) in 50 ml isotonic NaCl. Of this 50 ml solution, 40 ml was filter sterilized and added to sterile NaCl solution to a final volume of 500 ml, providing a 0.16 mg/ml concentration. 8-10 50 ml syringes of this solution can be prepared (2 syringes per FFR study). 3 ml/min=480 μg/min=0.9 μmol/min. Subjects thus received either 1.5 ml/min of UTP infusion or 2.25 mL/min of UTP infusion for a total of 3 minutes each. Patients also received adenosine (Sigma Aldrich) in the same eqipotent concentration.
All measurements were performed on at least 2 separate occasions to achieve a reproducible result with a mean value calculated. After each measurement, care was taken that APV returned to baseline before the administration of the next dose. For all measurements using both drugs and both routes of administration, changes in heart rate, blood pressure, and ECG were recorded.
In the second part of the experiment, a full dose response curve was generated for a gradual incremental increase in continuous UTP infusion while both CFR and FFR were measured simultaneously prior to percutaneous coronary intervention (PCI). Hyperemia was induced at 80 μg/min of continuous intracoronary UTP and adenosine, and the flow reserve values were compared (Table 1).
In the third part of the experiment, both CFR and FFR were measured simultaneously after percutaneous coronary intervention (PCI). Hyperemia was induced by either 240 or 360 μg/min of continuous intracoronary UTP and equipotent adenosine, and the flow reserve values were in some patients compared with the hyperemic response of a complete, proximal coronary occlusion for 30 s.
FFR is defined as the ratio of hyperemic flow in a stenotic artery to the hyperemic flow in the same artery if there was no stenosis present. FFR therefore expresses maximum hyperemic blood flow in a stenotic vessel as a fraction of its normal value. FFR can be calculated from intracoronary pressure measurements obtained during maximal hyperemia by the following equation: FFR═Pd−Pv/Pa−Pv→Pd/Pa, where Pa is the mean proximal coronary pressure (mean aortic pressure), Pd is the mean distal coronary pressure, and Pv is the mean central venous pressure. The coronary flow (velocity) reserve is the ratio of maximum to baseline hyperemic coronary flow velocity and is used as a surrogate for CFR. Using the Volcano Combomap®, APV throughout the cardiac phase was measured and CFR calculated from APV(hyperemia)/APV(basal).

[1] abbreviates: mean of six patients, 80 μg/min.

`O=c1ccn([C@@H]2O[C@H](COP(=O)(O)OP(=O)(O)OP(=O)(O)O)C(O)[C@@H]2O)c(=O)[nH]1` (some centres unmarked) [UTP, Uridine 5-triphosphate]: the “adverse effects during IC continuous infusion” value was “None of the UTP-treated patients in the current trial had chest pain, dyspnea, second or 3 degree A-V block or changes in systemic blood pressure and heart rate”; the “% of patients with FFR ≦ 0.75” value is 47%; the “% of patients with FFR ≦ 0.8” value was 65%; the “lowest FFR level” value is listed as 0.74±0.13. In addition, the “FFR in comparison to adenosine infusion” value (all 23 patients, IC 240 μg/min, p=0.003, FIG. 1) is given as “significantly decreased”. In addition, where the note is “all IC continuous infusion rates, versus adenosine”, the “time to induction of maximal hyperemia” value was “shorter”. Under “guide catheter method”, the “optimal dose for achieving maximal coronary hyperemia” value lay within 80 to 400 µg/min. The FFR (individual patients (row = patient no.), IC continuous infusion 80 μg/min, guide catheter) is 0.73 and 0.79 and 0.88 and 0.56. Where the note is “individual patients, 160 μg/min”, the FFR is 0.90 and 0.73 and 0.79 and 0.86 and 0.56. Moreover, the FFR (individual patients, 240 μg/min) was 0.89 (2×) and 0.73 and 0.79 and 0.87 and 0.55. Besides, under “individual patients, 320 μg/min”, the FFR is 0.90 and 0.89 and 0.72 and 0.77 and 0.86 and 0.56. For the same compound, the FFR (individual patients, 400 μg/min) is 0.90 and 0.92 and 0.56. For the same compound, the “FFR Mean” value under setting [1] came out at 0.74. Also, under “mean, 160 μg/min”, the “FFR Mean” value is listed as 0.77. Besides, the “FFR Mean” value (mean, 240 μg/min) turned out to be 0.79. Besides, the “FFR Mean” value (mean, 320 μg/min) is 0.78. Moreover, the “FFR Mean” value (mean, 400 μg/min) was 0.79. Also, where the note is “standard deviation of 0.15-0.17, p=0.003”, the “difference in FFR between adenosine and UTP” value is 0.05.

For the compound `Nc1ncnc2c1ncn2[C@@H]1O[C@H](CO)[C@@H](O)[C@H]1O` [adenosine], the “adverse effects during IC continuous infusion” value was “most patients felt uncomfortable chest pain and 2 patients had 3 degree A-V block”; the “% of patients with FFR ≦ 0.75” value is recorded as 39%; the “% of patients with FFR ≦ 0.8” value came to 43%; the “lowest FFR level” value is given as 0.81±0.11. The FFR (individual patients (row = patient no.), IC continuous infusion 80 μg/min, guide catheter, listed as ADO) is 0.83 and 0.95 and 0.76 and 0.88. Besides, the FFR (individual patients, 160 μg/min, listed as ADO) is 0.80 and 0.95 and 0.60 and 0.96 and 0.75. Besides, the FFR (individual patients, 240 μg/min, listed as ADO) is 0.81 and 0.94 and 0.60 and 0.87 and 0.91 and 0.71. Besides, the FFR (individual patients, 320 μg/min, listed as ADO) was 0.79 and 0.96 and 0.54 and 1.02 and 0.89 and 0.70. The FFR (individual patients, 400 μg/min, listed as ADO) was 0.56 and 1.01 and 0.89. Besides, the “FFR Mean” value under setting [1] was 0.86. For the setting “mean, 160 μg/min”, the “FFR Mean” value came out at 0.81. For the setting “mean, 240 μg/min”, the “FFR Mean” value stood at 0.81. For the same compound, the “FFR Mean” value (mean, 320 μg/min) was determined as 0.82. Where the note is “mean, 400 μg/min”, the “FFR Mean” value worked out at 0.82.
